ChEMBL document CHEMBL1148932, “Cyanopeptolin 963A, a chymotrypsin inhibitor of Microcystis PCC 7806” (J Nat Prod, 2004)
Calls of active or inactive are those of the source. The calls are words filed in the database; no cut-off is given here.

Tests used:
[1] = Inhibition of alpha-chymotrypsin in bovine pancreas; set-up: species or system Bos taurus
Sus scrofa = species: Sus scrofa; assay: Inhibition of trypsin in pig pancreas at 15 uM
Cathepsin B (Bos taurus) = Cathepsin B (Bos taurus) (UniProt P07688); assay: Inhibition of cathepsin B in bovine spleen at 15 uM

Structure (SMILES)	IC50 [1] [nM]	Activity (Sus scrofa)	Activity (Cathepsin B (Bos taurus))
CC[C@H](C)[C@@H]1NC(=O)[C@H](Cc2ccc(O)cc2)N(C)C(=O)[C@H](Cc2ccccc2)N2C(=O)[C@H](CC[C@H]2O)NC(=O)[C@H](Cc2ccccc2)NC(=O)[C@@H](NC(=O)[C@@H](O)COP(=O)(O)O)[C@@H](C)OC1=O [MICROPEPTIN T 20]	2.5	–	–
CCCCCC(=O)N[C@@H](CC(=O)O)C(=O)N[C@@H]1C(=O)N[C@@H](Cc2ccc(O)cc2)C(=O)N[C@H]2CC[C@@H](O)N(C2=O)[C@@H](CC(C)C)C(=O)N(C)[C@@H](Cc2ccccc2)C(=O)N[C@@H](C(C)C)C(=O)O[C@@H]1C [CYANOPEPTOLIN 963A]	900	inactive	inactive
